# Test results taken from patent US9688630B2, “3,3′-disubstituted indolines as inhibitors of cholesterol ester transfer protein” (Merck Sharp & Dohme Corp., priority 2013, dated 2017).
# Columns and labels:
# [1] = target: T1, endogenous CETP from human serum (Homo sapiens, UniProt P11597); test: RTA assay using endogenous CETP from serum (95% RTA); format: biochemical; details: 95% human serum
# T1 construct: yielding a concentration of approximately 15 nM endogenous CETP in the assay; from tissue; host or cells: human serum
# T1 sequence (P11597 18-493): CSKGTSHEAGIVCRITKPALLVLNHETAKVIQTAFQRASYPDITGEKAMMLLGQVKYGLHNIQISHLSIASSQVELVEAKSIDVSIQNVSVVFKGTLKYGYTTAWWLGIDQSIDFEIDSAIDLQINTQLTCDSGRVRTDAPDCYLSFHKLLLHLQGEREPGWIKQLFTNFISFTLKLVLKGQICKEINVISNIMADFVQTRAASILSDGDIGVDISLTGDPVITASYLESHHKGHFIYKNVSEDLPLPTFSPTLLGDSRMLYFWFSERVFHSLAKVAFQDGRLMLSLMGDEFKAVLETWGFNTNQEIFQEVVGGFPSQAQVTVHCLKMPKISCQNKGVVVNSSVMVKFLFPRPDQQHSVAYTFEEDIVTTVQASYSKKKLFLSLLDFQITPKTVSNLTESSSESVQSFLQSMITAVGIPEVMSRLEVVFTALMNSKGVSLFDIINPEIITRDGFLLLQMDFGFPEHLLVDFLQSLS
# Procedure: (§1) In Vitro Radioactive Assays of CETP-Catalyzed CE and TG Transfer (RTA Assay)
# (§2) Reagents and sources are: [3H] cholesteryl oleate (GE #TRK.886), [3H] Triolein (Perkin-Elmer NET-431), Butylated hydroxyl toluene (Aldrich, #D4740-4), DOPC (Sigma, #P6354), Sodium Bromide (Fisher scientific #S255-500), PEG 8000 (Fisher, #BP233-1), and human HDL (Intracel Corp #RP-036).
# (§3) An in vitro assay for determining IC50's to identify compounds that inhibit CETP transfer activity is performed based on a modification of a published method (Morton and Zilversmit, (1981) A plasma inhibitor of triglyceride and cholesteryl ester transfer activities, J. Biol. Chem. 256(23), 11992-11995). The ability of inhibitors to alter CETP activity is performed using two different assays: one using recombinant CETP and one using an endogenous plasma source of CETP. Both assays measure the transfer of [3H] cholesteryl oleate or [3H] triolein from exogenous LDL to HDL.
# (§4) Radiolabeled donor particles are generated by first combining 100 μl of 200 μM butylated hydroxyl toluene in CHCl3, 216 μL of 21.57 mM DOPC in EtOH, and either 500 μCi [3H]-triolein (Perkin Elmer #NET-431) or 500 μCi [3H]-cholesteryl oleate (GE #TRK886) in a glass tube. Reagents are mixed, dried under nitrogen, and then resuspended in 2 mL of 50 mM Tris, 27 μM EDTA at pH 7.4. After a brief vortex, the solution is sonicated until clear and mixed with 20 mL of fresh human serum. The mixture is incubated overnight at 37° C. The [3H] labeled LDL substrate is separated at 1.063 g/ml density by sequential ultracentrifugal flotation in NaBr according to the method of Havel, Eder, et al., 1955, and Chapman, Goldstein, et al., 1981. Once isolated the particles are dialyzed 3× in CETP buffer (50 mM Tris, pH 7.4, 100 mM NaCl, 1 mM EDTA). Human HDL is purchased from Intracel and used as the acceptor particles.
# (§5) Transfer assays are performed in a 96-well v-bottom polypropylene plate. For the RTA using recombinant CETP (2% RTA), an assay cocktail is prepared with the final concentrations 128 μg/mL HDL, 20 nM rCETP, 2% human serum, and 1×CETP buffer. 1 μL of each test compound diluted in DMSO is added to 47 μL of assay cocktail per well and incubated at 37° C. for 1 hour. To initiate the transfer reaction, 2 μL radiolabeled LDL is added. After an additional 60 min of incubation at 37° C., the transfer action is terminated by precipitation of LDL with an equal volume of 20% W/V PEG 8000. The plates are centrifuged at 2000 rpm for 30 minutes at 4° C. A 40 μL aliquot of the HDL-containing supernatant is transferred to a Packard Optiplate™ with 200 μL of MicroScint™ 20. After mixing, plates are counted by liquid scintillation. Counts present in the supernatant for blanks (wells containing only HDL acceptor, CETP buffer and DMSO) are subtracted from those containing test compounds and used to correct for non-specific transfer.
# For the transfer assay using endogenous CETP from serum (95% RTA), the same procedure is used except that human serum is added such that a final concentration of serum of 95% of the total assay volume is achieved, yielding a concentration of approximately 15 nM endogenous CETP in the assay. This is then combined with HDL and CETP buffer and the reaction proceeds as above and is terminated as described.
# (§6) Comparison of the counts of samples with inhibitors to an uninhibited (DMSO only) positive control yield a percent inhibition. A plot of percent inhibition vs. log of inhibitor concentration, fit to a Sigmoidal 4 parameter equation is used to calculate IC50.
# [2] = target: T2, recombinant CETP (Homo sapiens, UniProt P11597); test: RTA assay using recombinant CETP (2% RTA); format: biochemical; details: 2% human serum
# T2 sequence (P11597 18-493): T1 sequence (P11597 18-493)
# Procedure: as §1, §2, §3, §4, §5, §6
SMILES,IC50 [1] [nM],IC50 [2] [nM]
"O[C@H](CN1CC(Cc2cccc(OC(F)(F)F)c2)(c2cccc(C(F)(F)F)c2)c2ccccc21)C(F)(F)F (mixture of isomers) [Example 1, (2R)-1,1,1-trifluoro-3-(3-(3-(trifluoromethoxy)benzyl)-3-(3-(trifluoromethyl)-phenyl)indolin-1-yl)propan-2-ol]",1220,28
"O[C@H](CN1CC(Cc2cccc(OC(F)(F)F)c2)(c2cccc(Cl)c2)c2ccccc21)C(F)(F)F (mixture of isomers) [Example 4, (2R)-3-(3-(3-chlorophenyl)-3-(3-(trifluoromethoxy)benzyl)indolin-1-yl)-1,1,1-trifluoropropan-2-ol]",1380,466
"COc1cccc(-c2cccc(C3(Cc4cccc(OC(F)(F)F)c4)CN(C[C@@H](O)C(F)(F)F)c4ccccc43)c2)c1 (mixture of isomers) [Example 25, (2R)-1,1,1-trifluoro-3-(3-(3′-methoxy-[1,1′-biphenyl]-3-yl)-3-(3-(trifluoromethoxy)benzyl)indolin-1-yl)propan-2-ol]",3130,1470
"O=C(O)c1ccc(-c2cccc(C3(Cc4cccc(OC(F)(F)F)c4)CN(C[C@@H](O)C(F)(F)F)c4ccccc43)c2)cc1 (mixture of isomers) [Example 26, 3′-(1-((R)-3,3,3-trifluoro-2-hydroxypropyl)-3-(3-(trifluoromethoxy)-benzyl)indolin-3-yl)-[1,1′-biphenyl]-4-carboxylic acid]",3860,1350
"O[C@H](CN1CC(Cc2cccc(OC(F)(F)F)c2)(c2cccc(N3CCOCC3)c2)c2ccccc21)C(F)(F)F (mixture of isomers) [Example 31, (2R)-1,1,1-trifluoro-3-(3-(3-morpholinophenyl)-3-(3-(trifluoromethoxy)benzyl)indolin-1-yl)propan-2-ol]",643,146
O[C@H](CN1CC(Cc2cccc(OC(F)(F)F)c2)(c2cccc(N[C@@H]3CCOC3)c2)c2ccccc21)C(F)(F)F (mixture of isomers) [Example 32],1430,252
O[C@H](CN1CC(Cc2ccccc2)(c2cccc(OC(F)(F)F)c2)c2ccccc21)C(F)(F)F (stereo partly drawn) [Example 2],746,238
"O[C@H](CN1CC(Cc2cccc(Br)c2)(c2cccc(OC(F)(F)F)c2)c2ccccc21)C(F)(F)F (stereo partly drawn) [Example 3, (2R)-3-(3-(3-bromobenzyl)-3-(3-(trifluoromethoxy)phenyl)indolin-1-yl)-1,1,1-trifluoropropan-2-ol]",308,67
COc1ccc(CC2(c3cccc(OC(F)(F)F)c3)CN(C[C@@H](O)C(F)(F)F)c3ccccc32)cc1 (stereo partly drawn) [Example 5],9680,2150
O[C@H](CN1CC(Cc2cccc(OC(F)(F)F)c2)(c2cccc(OC(F)(F)F)c2)c2cc(F)ccc21)C(F)(F)F (stereo partly drawn) [Example 6],763,–
O[C@H](CN1CC(Cc2cccc(OC(F)(F)F)c2)(c2ccc(OC(F)(F)F)cc2)c2ccccc21)C(F)(F)F (stereo partly drawn) [Example 7],232,–
O[C@H](CN1CC(Cc2cccc(OC(F)(F)F)c2)(c2cccc(OC(F)(F)C(F)F)c2)c2ccccc21)C(F)(F)F (stereo partly drawn) [Example 8],94,25
O[C@H](CN1CC(Cc2ccccc2OC(F)(F)F)(c2cccc(OC(F)(F)F)c2)c2ccccc21)C(F)(F)F (stereo partly drawn) [Example 9],3370,1210
O[C@H](CN1CC(Cc2cccc(OC(F)(F)F)c2)(c2cccc(OC(F)(F)F)c2)c2ccccc21)C(F)(F)F (stereo partly drawn) [Example 10],69,–
Cc1cccc2c1N(C[C@@H](O)C(F)(F)F)CC2(Cc1cccc(OC(F)(F)F)c1)c1cccc(OC(F)(F)F)c1 (stereo partly drawn) [Example 11],491,155
O[C@H](CN1CC(Cc2cccc(OC(F)(F)F)c2)(c2cccc(OC(F)(F)F)c2)c2cccc(F)c21)C(F)(F)F (stereo partly drawn) [Example 12],222,67

SMILES,IC50 [1] [nM],IC50 [2] [nM]
O[C@H](CN1CC(Cc2cccc(OC(F)(F)F)c2)(c2cc(F)cc(C(F)(F)F)c2)c2ccccc21)C(F)(F)F (stereo partly drawn) [Example 13],2510,102
O[C@H](CN1CC(Cc2cccc(OC(F)(F)F)c2)(c2ccc(F)c(C(F)(F)F)c2)c2ccccc21)C(F)(F)F (stereo partly drawn) [Example 14],685,277
O[C@H](CN1CC(Cc2ccc(F)cn2)(c2cccc(OC(F)(F)F)c2)c2cccc(F)c21)C(F)(F)F (stereo partly drawn) [Example 15],–,2860
Cc1csc(CC2(c3cccc(OC(F)(F)F)c3)CN(C[C@@H](O)C(F)(F)F)c3c(F)cccc32)n1 (stereo partly drawn) [Example 16],2000,296
O[C@H](CN1CC(Cc2cccc(C(F)(F)F)c2)(c2cccc(OC(F)(F)F)c2)c2cccc(F)c21)C(F)(F)F (stereo partly drawn) [Example 17],706,66
Cc1ccc(C2(Cc3cccc(OC(F)(F)F)c3)CN(C[C@@H](O)C(F)(F)F)c3ccccc32)cc1Cl (stereo partly drawn) [Example 18],1350,161
O[C@H](CN1CC(Cc2cccc(OC(F)(F)F)c2)(c2ccc(F)c(Cl)c2)c2ccccc21)C(F)(F)F (stereo partly drawn) [Example 19],3740,883
O[C@H](CN1CC(Cc2cccc(OC(F)(F)F)c2)(c2ccnc(C(F)(F)F)c2)c2ccccc21)C(F)(F)F (stereo partly drawn) [Example 20],2600,447
CCOc1cc(C2(Cc3cccc(OC(F)(F)F)c3)CN(C[C@@H](O)C(F)(F)F)c3ccccc32)ccn1 (stereo partly drawn) [Example 21],283,60
CC(C)Oc1cc(C2(Cc3cccc(OC(F)(F)F)c3)CN(C[C@@H](O)C(F)(F)F)c3ccccc32)ccn1 (stereo partly drawn) [Example 22],101,43
CCOc1cc(C2(Cc3cccc(OC)c3)CN(C[C@@H](O)C(F)(F)F)c3ccccc32)ccn1 (stereo partly drawn) [Example 23],681,249
O[C@H](CN1CC(Cc2cccc(OC(F)(F)F)c2)(c2ccnc(N3CCOCC3)c2)c2ccccc21)C(F)(F)F (stereo partly drawn) [Example 24],3120,244
Cc1cc(C(=O)O)ccc1-c1cccc(C2(Cc3cccc(OC(F)(F)F)c3)CN(C[C@@H](O)C(F)(F)F)c3ccccc32)c1 (stereo partly drawn) [Example 27],4070,378
Cc1ccc(C2(Cc3cccc(OC(F)(F)F)c3)CN(C[C@@H](O)C(F)(F)F)c3ccccc32)cc1-c1ccc(C(=O)O)cc1 (stereo partly drawn) [Example 28],–,1510
Cc1cc(C(=O)O)ccc1-c1cc(C2(Cc3cccc(OC(F)(F)F)c3)CN(C[C@@H](O)C(F)(F)F)c3ccccc32)ccc1C (stereo partly drawn) [Example 29],–,1690
Cc1cc(C(=O)O)ccc1-c1cc(C2(Cc3cccc(OC(F)(F)F)c3)CN(C[C@@H](O)C(F)(F)F)c3ccccc32)ccc1F (stereo partly drawn) [Example 30],–,328
